Results from patent publication US10294202B2, “Pyrrolidinones as herbicides” (FMC Corporation, priority 2013, dated 2019).

Key:
soybean = assay: Test C pre-/postemergence herbicide test; format: in vivo, Glycine max
Outline: (§1)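 Compound solutions contained surfactant in a non-phytotoxic solvent. These were sprayed onto pots of loam/sand sown with seeds, and onto young plants (2 to 18 cm, 1- to 4-leaf) in sphagnum peat–vermiculite mix. Visual injury scores (0 none, 100 complete control) were recorded after 13 to 15 days.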

sedge, umbrella = assay: Test B flooded paddy test; format: in vivo, Cyperus difformis; details: 500 g ai/ha, Flood; scale of 0 to 100 where 0 is no effect and 100 is complete control
Outline: (§2)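 Treatment was made at the 2-leaf stage by dosing the standing floodwater, kept 3 cm above soil level for the whole test. Greenhouse exposure lasted 13 to 15 days. Response is a visual percent rating relative to controls, where a dash indicates no test result.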

oat, wild = assay: Test C pre-/postemergence herbicide test; format: in vivo, Avena fatua; details: Postemergence
Outline: as §1

lambsquarters = assay: Test C pre-/postemergence herbicide test; format: in vivo, Chenopodium album
Outline: as §1

johnsongrass = assay: Test C pre-/postemergence herbicide test; format: in vivo, Sorghum halepense
Outline: as §1

ragweed = assay: Test C pre-/postemergence herbicide test; format: in vivo, Ambrosia elatior
Outline: as §1

rice = assay: Test B flooded paddy test; format: in vivo, Oryza sativa; details: 500 g ai/ha, Flood; scale of 0 to 100 where 0 is no effect and 100 is complete control
Outline: as §2

barnyardgrass = assay: Test C pre-/postemergence herbicide test; format: in vivo, Echinochloa crus-galli
Outline: as §1

waterhemp = assay: Test C pre-/postemergence herbicide test; format: in vivo, Amaranthus rudis
Outline: as §1

morningglory = assay: Test C pre-/postemergence herbicide test; format: in vivo, Ipomoea coccinea
Outline: as §1

corn = assay: Test A pre-/postemergence herbicide test; format: in vivo, Zea mays; details: Postemergence
Outline: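 Formulated compound (non-phytotoxic solvent, surfactant) sprayed pre- onto soil of seeded loam/sand pots or post- onto seedlings at 1–2 leaves; ~10 d greenhouse; 0–100 visual control rating versus untreated.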

[1] = Postemergence, 31 g ai/ha, scale 0 to 100 (0 no effect, 100 complete control)
[2] = Postemergence, 62 g ai/ha, scale 0 (no effect) to 100 (complete control)
[3] = Postemergence, 125 g ai/ha, scale 0 to 100 (0 no effect, 100 complete control)
[4] = Postemergence, 250 g ai/ha, scale 0 to 100 (0 no effect, 100 complete control)
[5] = Preemergence, 31 g ai/ha, scale 0 to 100, 0 is no effect and 100 is complete control
[6] = Preemergence, 62 g ai/ha, scale 0 to 100 (0 no effect, 100 complete control)
[7] = Preemergence, 125 g ai/ha, scale 0 to 100 (0 no effect, 100 complete control)

O=C1NCC(c2cccc(OC(F)F)c2)C1C(=O)Nc1cccc(F)c1F (stereo not shown) [Compound 224]
45: Plant response rating, Ragweed (ragweed; [3])
100: Soybean plant response rating (soybean; [6]) | Plant response rating, Ragweed (ragweed; [7]) | Plant response rating (scale of 0 to 100), Ragweed (ragweed; Preemergence, 250 g ai/ha)
80: Plant response rating, Ragweed (ragweed; [4]) | Plant response rating (scale of 0 to 100), Waterhemp (waterhemp; Preemergence, 250 g ai/ha) | Corn plant response rating (0 to 100 scale, 0 is no effect, 100 is complete control) (corn; 500 g ai/ha)
85: Plant response rating (scale of 0 to 100), Johnsongrass (johnsongrass; Preemergence, 250 g ai/ha) | Plant response rating, Barnyardgrass (barnyardgrass; Preemergence, 62 g ai/ha, scale 0 to 100)
25: Plant response rating, Johnsongrass (johnsongrass; [4]) | Plant response rating, Waterhemp (waterhemp; [1]) | Morningglory plant response rating (morningglory; [6])
40: Ragweed plant response rating (ragweed; [6])
30: Plant response rating, Barnyardgrass (barnyardgrass; [2]) | Plant response rating, Waterhemp (waterhemp; [3]) | Plant response rating, Waterhemp (waterhemp; [4]) | Plant response rating (scale of 0 to 100), Morningglory (morningglory; Preemergence, 250 g ai/ha)
15: Plant response rating, Oat, Wild (oat, wild; 250 g ai/ha, scale 0 to 100 (0 no effect, 100 complete control)) | Plant response rating, Johnsongrass (johnsongrass; [3])
65: Lambsquarters plant response rating (lambsquarters; [6]) | Plant response rating, Ragweed (ragweed; [2])
90: Plant response rating, Barnyardgrass (barnyardgrass; [7])
35: Johnsongrass plant response rating (johnsongrass; [6]) | Plant response rating, Waterhemp (waterhemp; [2]) | Plant response rating, Morningglory (morningglory; [3]) | Plant response rating, Morningglory (morningglory; [4])
10: Plant response rating, Soybean (soybean; [2]) | Ragweed plant response rating (ragweed; [5])
0: Plant response rating, Soybean (soybean; [1]) | Soybean plant response rating (soybean; [5]) | Plant response rating, Soybean (soybean; [7]) | Plant response rating, Sedge, Umbrella (sedge, umbrella) | Plant response rating, Oat, Wild (oat, wild; 31 g ai/ha, scale 0 to 100 (0 no effect, 100 complete control)) | Plant response rating, Oat, Wild (oat, wild; 62 g ai/ha, scale 0 (no effect) to 100 (complete control)) | Plant response rating, Johnsongrass (johnsongrass; [1]) | Plant response rating, Johnsongrass (johnsongrass; [2]) | Johnsongrass plant response rating (johnsongrass; [5]) | Plant response rating, Rice (rice) | Plant response rating, Barnyardgrass (barnyardgrass; [1])
95: Plant response rating, Lambsquarters (lambsquarters; [7]) | Plant response rating (scale of 0 to 100), Lambsquarters (lambsquarters; Preemergence, 250 g ai/ha) | Plant response rating (scale of 0 to 100; 0 is no effect, 100 is complete control), Barnyardgrass (barnyardgrass; Preemergence, 250 g ai/ha)
50: Plant response rating, Lambsquarters (lambsquarters; [2]) | Plant response rating, Barnyardgrass (barnyardgrass; [3])
55: Lambsquarters plant response rating (lambsquarters; [5])
60: Plant response rating, Lambsquarters (lambsquarters; [4]) | Plant response rating, Corn (corn; 125 g ai/ha, 0 to 100 scale, 0 is no effect, 100 is complete control)
20: Plant response rating, Ragweed (ragweed; [1])
75: Plant response rating, Johnsongrass (johnsongrass; [7]) | Plant response rating, Barnyardgrass (barnyardgrass; [4]) | Barnyardgrass plant response rating (barnyardgrass; [5]) | Waterhemp plant response rating (waterhemp; [5])
5: Plant response rating, Soybean (soybean; [3]) | Plant response rating, Soybean (soybean; [4]) | Plant response rating (scale of 0 to 100), Soybean (soybean; Preemergence, 250 g ai/ha) | Plant response rating, Oat, Wild (oat, wild; 125 g ai/ha, scale 0 to 100 (0 no effect, 100 complete control)) | Plant response rating, Lambsquarters (lambsquarters; [1]) | Waterhemp plant response rating (waterhemp; [6]) | Plant response rating, Morningglory (morningglory; [1]) | Plant response rating, Morningglory (morningglory; [2]) | Morningglory plant response rating (morningglory; [5]) | Plant response rating, Morningglory (morningglory; [7])
70: Plant response rating, Lambsquarters (lambsquarters; [3]) | Plant response rating, Waterhemp (waterhemp; [7])
